From US20030157088A1, “Compositions containing enzymes stabilized with inhibitors having certain binding properties and methods for using such compositions in personal care” (The Proctor & Gamble Company, priority 2001, published 2003)
pKi: −log10 of the molar value.

Target: subtilisin
Assay type: biochemical
Details: approximate values; Ki=[E]*[I]/[EI]; read-out: inhibition constant (Ki)
Text: Typically a safe and effective amount will range from 0.00005% to 5%, preferably from 0.005% to 2%, more preferably from 0.025% to 1%. Ki values reported herein are approximate values and may be measured, e.g. using the method set forth in “Kinetcs of Subtilisin and Thiolsubtilisin“, Philipp, M. and Bender, M. L., Molecular & Cellular Biochemistry, vol. 51, pages 5-32 (1983). Another suitable method is set forth in “Protease Stabilization by Carboxylic Acid Salts: Relative Efficencies and Mechanisms,” Crossin, Michael C., J.A.O.C.S. vol. 66, no. 7, pages 1010-1014 (July 1989). […] The inhibition constant (Ki) is defined as the concentration of inhibitor required to inhibit an enzyme's activity by 50%, and may be represented as Ki=[E]*[I]/[EI], wherein E is enzyme, I is inhibitor, and EI is enzyme-inhibitor complex.

Row | Molecule | pKi
1 | OB(O)O [boric acid] | < 3.00
2 | CCCCB(O)O [butylboronic acid] | 2.14
3 | CC(=O)N[C@@H](CC(C)C)C(=O)N[C@@H](CC(C)C)C(=O)N[C@H](C=O)CCCNC(=N)N [leupeptide] | 3.64
4 | OB(O)c1ccccc1 [phenylboronic acid] | 3.80
5 | Streptomyces subtilisin inhibitor [Streptomyces subtilisin inhibitor (SSI)] | > 9.00

Tested on: skin
Details: in vivo

Row | Molecule | irritation of the skin
6 | CCCCCCCCCCO[C@@H]1O[C@H](CO)[C@@H](O)[C@H](O)[C@H]1O [Decyl glucoside, decyl glucoside] | not increase irritation of the skin
